In patent US7393526B2, “Systemic gene delivery vehicles for the treatment of tumors” (Children's Medical Center Corporation, priority 2000, dated 2008):

Legend:
CNS-1 glioma cells = assay: Co-culture of CD-NSCs with glioma cells plus 5-FC: tumor cell count per high-power field; type: cell-based; conditions: tumor cell-only plates, no CD-NSCs, 5-FC 500 μg/ml
Source text: FIGS. 2A-2C summarize the significant antitumor effect of CD-expressing NSCs in vitro. CNS-1 glioblastoma cells were co-cultured with murine CD-NSCs (FIGS. 2A and 2B) or human CD-NSCs. Representative low power fields are shown after fixation and X-gal staining (CD-NSCs dark blue, tumor cells pale) three days after plating with or without 5-FC. […] In this treatment regime, the NSCs were still dividing and thus also subject to elimination by 5-FU and its toxic metabolites. […] Note also, that the tumor-killing effect was virtually identical whether 50,000 or 100,000 CD-NSCs were initially plated with 200,000 tumor cells.
This experiment was performed to determine if modified CD-NSCs could effectively deliver therapy to tumor cells and produce a profound antitumor response. 200,000 CNS-1 glioma cells were plated into 10 cm Petri dishes. The following day (Day 1) media were replaced, and 50,000 or 100,000 CD-NSCs were added. On Day 2, media were replaced and 5-FC added (500 μg/ml). Control dishes included tumor-NSC co-cultures with no 5-FC treatment and tumor cell-only dishes with 5-FC treatment. Three days later, all plates were rinsed well with 1× PBS and fixed with 4% paraformaldehyde for 10 min at room temperature. […] Under high power, the numbers of tumor cells per field were counted. […]

CNS-1 glioblastoma = assay: Intracranial CNS-1 tumor co-transplanted with CD-NSCs, i.p. 5-FC: tumor mass; type: in vivo, adult nude mice; conditions: tumor alone, 5-FC 900 mg/kg i.p. for 10 days
Source text: CNS-1 glioblastoma cells alone, or CNS-1 cells co-transplanted with human CS-NSCs were implanted into the frontal lobe of adult nude mice. Two days later, treated animals began to receive daily intraperitoneal injections of 5-FC which continued for ten days. […] Note that there was about an 80% reduction in tumor mass in 5-FC-treated animals transplanted with tumor and CD-NSCs (FIG. 3D). […] FIGS. 3B, 3C and 3D are “camera lucida” sections of tumor areas on representative cryostat tissue sections, stained with X-gal and counterstained with neutral red.
On Day 0, adult nude mice received stereotactically guided injections into the right frontal lobe of CNS-1 glioblastoma alone (7×10^4 in 2 μl PBS), or CNS-1 cells mixed with CD-NSCs (7×10^4 CNS-1 and 3.5×10^4 NSCs in 2 μl PBS). Two days later treated animals received 10 intraperitoneal injections 900 mg/kg of 5-FC over a period of 10 days. Control animals received no 5-FC. Animals were sacrificed on day 13.

Nc1nc(=O)[nH]cc1F [5-FC, 5-fluorocytosine]
killing of tumor cells, tumor alone (CNS-1 glioma cells): not significantly killed
effect on tumor mass in the absence of CD-NSCs (CNS-1 glioblastoma): no effect on tumor mass
